Measured values reported in patent US20250025417A1, “ORAL ABIRATERONE FORMULATIONS” (PROPELLA THERAPEUTICS, INC., priority 2021, published 2025).

Tests used:
[1] = Forms A, B, and C
[2] = Solubility of abiraterone decanoate in lipid-based vehicles at 25° C. (HPLC); format: physicochemical; settings: for Solubility (mg/g) at 25° C.: Day 13 results; for Solb (mg/g) at 25° C.: average of day 2 and day 7
Description: In this example, solubility of abiraterone decanoate in the following four vehicles were tested. Each vehicle has a distinctive base, namely, medium chain trigylceride (MCT)/polyoxylglyceride, long chain (LC) monodiglyceride, and two propylene glycol (PG) monoesters, caprylic and lauryl. • Vehicle 1: MCT/Polyoxylglyceride based: 20% Kolliphor RH40/14% Plurol Oleique CC 497/33% Labrafil 1944 CS/33% Labrafac Lipophile WL 1349 • Vehicle 2: PG Monoester based: 20% Kolliphor RH 40/14% Plurol Oleique CC 497/66% Lauroglycol 90 • Vehicle 3: PG Monoester based: 20% Kolliphor RH40/14% Plurol Oleique CC 497/66% Capmul PG-8 • Vehicle 4: LC Monodiglyceride based: 20% Kolliphor RH40/14% Plurol Oleique CC 497/66% Maisine CC
Solubilities of abiraterone decanoate in different vehicles were tested following the procedure below: • Prepare 5 g of each vehicle by weight • In a 4-mL vial, weigh about 350 mg drug and then add 2 mL of vehicle • Sonicate and vortex all samples, then place on a rotator at 25° C. • At the end of the day check the samples to see if the drug completely dissolved. If so, use wax paper to transfer additional drug, record the additional amount added. • After 2-3 days, remove about 0.5 mL from each sample and filter using a microcentrifuge. […] Results were obtained for samples after 2 days and after 7 days.
The vehicles being tested have the following compositions: • Vehicle 1 (see Example 2): 20% Kolliphor RH40/14% Plurol Oleique CC 497/33% Labrafil 1944 CS/33% Labrafac Lipophile WL 1349, used as a control. • Vehicle 5: 20% Kolliphor RH40/14% Plurol Oleique CC 497/33% Maisine CC/33% Labrafac Lipophile WL 1349* • Vehicle 6: 20% Kolliphor RH40/14% Plurol Oleique CC 497/16% Labrafil 1944 CS/30% Maisine CC/20% Labrafac Lipophile WL 1349 • Vehicle 7: 20% Kolliphor RH40/14% Plurol Oleique CC 497/16% Labrafil 1944 CS/30% Capmul PG-8/20% Labrafac Lipophile WL 1349 • Vehicle 8: 20% Kolliphor RH40/14% Plurol Oleique CC 497/16% Labrafil 1944 CS/30% Capmul PG-12/20% Labrafac Lipophile WL 1349 • Vehicle 9: 20% Kolliphor RH40/14% Plurol Oleique CC 497/16% Labrafil 1944 CS/30% Labrafil M 2130 CS/20% Labrafac Lipophile WL 1349
The procedures for preparing samples and solubility testing are similar to those described in Example 2.

DVS Max H2O uptake (wt %) [1]: N/A - non-hygroscopic
solubility in lipid based vehicles (in words) ([2]; Examples 2 and 3): good solubilities
Solubility (mg/g) at 25° C. ([2]; Vehicle 1 (control)): 101.1 mg/g
Solb (mg/g) at 25° C. ([2]; Vehicle 1: 20% Kolliphor RH40/14% Plurol Oleique CC 497/33% Labrafil 1944 CS/33% Labrafac Lipophile WL 1349): 88.5 mg/g
Solb (mg/g) at 25° C. ([2]; Vehicle 2: 20% Kolliphor RH 40/14% Plurol Oleique CC 497/66% Lauroglycol 90): 143.9 mg/g
Solb (mg/g) at 25° C. ([2]; Vehicle 3: 20% Kolliphor RH40/14% Plurol Oleique CC 497/66% Capmul PG-8): 149.2 mg/g
Solb (mg/g) at 25° C. ([2]; Vehicle 4: 20% Kolliphor RH40/14% Plurol Oleique CC 497/66% Maisine CC): 110.2 mg/g
Solubility (mg/g) at 25° C. ([2]; Vehicle 5: 20% Kolliphor RH40/14% Plurol Oleique CC 497/33% Maisine CC/33% Labrafac Lipophile WL 1349): 111.5 mg/g
Solubility (mg/g) at 25° C. ([2]; Vehicle 6: 20% Kolliphor RH40/14% Plurol Oleique CC 497/16% Labrafil 1944 CS/30% Maisine CC/20% Labrafac Lipophile WL 1349): 114.3 mg/g
Solubility (mg/g) at 25° C. ([2]; Vehicle 7: 20% Kolliphor RH40/14% Plurol Oleique CC 497/16% Labrafil 1944 CS/30% Capmul PG-8/20% Labrafac Lipophile WL 1349): 141.2 mg/g
Solubility (mg/g) at 25° C. ([2]; Vehicle 8: 20% Kolliphor RH40/14% Plurol Oleique CC 497/16% Labrafil 1944 CS/30% Capmul PG-12/20% Labrafac Lipophile WL 1349): 132.9 mg/g
SMILES: CCCCCCCCCC(=O)O[C@H]1CC[C@@]2(C)C(=CC[C@@H]3[C@@H]2CC[C@]2(C)C(c4cccnc4)=CC[C@@H]32)C1 [abiraterone decanoate]
